According to patent publication US10076511B2, “Bisamide derivative of dicarboxylic acid as an agent for stimulating tissue regeneration and recovery of diminished tissue function” (TREAMID GmbH, priority 2015, dated 2018):

Columns and labels:
male rats = experiment: Morphological and functional state of spermatogenic tissue after Paclitaxel; type: in vivo, rat
Description: The latter was simulated by a single injection of cytostatic drug Paclitaxel (Mitotax, Dr. Reddy's, India) to male rats (3 months of age). The choice of the drug was due to the fact that it is one of the medications that damage the precursors of spermatogenesis—stem cells.
Paclitaxel was administered to the animals of the control and test groups once intravenously at the maximum tolerated dose of 7.6 mg/kg. Treamid was administered to the animals of the experimental groups intragastrically at a dose of 5 mg/kg in the form of a suspension in 2% starch mucus for 15 days a month after the administration of Paclitaxel. The control animals received an equivalent volume of the solvent (2% starch mucus), instead of the test compound.
Morphological and functional state of the spermatogenic tissue was assessed to obtain an additional confirmation of the efficiency to stimulate the formation of committed stem cells.
It was estimated by the following indices: the number of cells in the spermatogonial population, the average number of Sertoli cells, the degree of maturity of the spermatogenic layer, the number of Leydig cells, the endocrine activity of the testis, the total number of sperm cells per epididymis, and the percentage of motile sperm forms. For this, in euthanasia on Day 45, Day 65, and Day 90 of the experiment, the tail part of epididymis and testis were isolated at dissection. The epididymis of one testis was homogenized in a warm (37° C.) physiological saline, and the number of motile sperm forms was determined in the suspension of the epididymis cells. The total number of sperm cells per epididymis (TNS) was calculated by using a homogenized cell suspension of the second epididymis in a dosage amount of physiological saline using a leukocyte-count pipette and Goryaev chamber.
A morphological assay of the testes of rats was performed by fixation thereof in Carnoy's fluid and by preparing paraffin sections. Deparaffined sections of a thickness of 5 μm were stained with hematoxylin-eosin. The number of cells in the spermatogonial population, the number of Sertoli cells, and the number of Leydig cells were counted on the testis section, and the endocrine activity of Leydig cells was determined. The degree of maturity of the spermatogenic layer was calculated based on the count of Sertoli cells. The calculation was carried out according to the formula for the experimental groups: y=5.95-0.18x; for the group of intact animals: y=6.7-0.23x, where x is the average number of Sertoli cells in the cross-section of the convoluted seminiferous tubule, and y is the index characterizing the degree of maturity of the spermatogenic layer. When choosing the time for studies, the duration of spermatogenesis in rats was taken into account, which was one and a half months. The duration of 45 and 65 days after administration of Paclitaxel corresponds to the manifestation of effects on the spermatogonial cell population.
The criteria for stimulation of the process of regeneration of the testicular tissue were: an increase in the number of cells in the spermatogonial populations, the number of Sertoli cells, a decrease in the degree of maturity of the spermatogenic layer, and an increase in the productivity of spermatogenesis. The criterion of the functional activity of sperm cells is the percentage of their motile forms.

male CBA/CaLac mice = experiment: Chronic toxic hepatitis model (CCl4), liver histology; type: in vivo, mouse; conditions: Day 28; Treamid 10 mg/kg intragastrically Day 14-27
Description: Chronic toxic hepatitis was induced in the male CBA/CaLac mice by intragastric administration of a 20% carbon tetrachloride (CCl4) solution in olive oil in a volume of 0.2 ml/mouse on Days 0, 3, 7, 10, 14, and 17 of the study. Treamid was administered at a dose of 10 mg/kg intragastrically once daily, every day from Day 14 to Day 27 of the study. On day 28, the animals were euthanized in a CO2 chamber and a liver biopsy sample was taken for histological analysis.
For histological examination, the liver was fixed in a 10% neutral formalin solution and then poured into paraffin by the standard method. Deparaffined sections of a thickness of 5 μm were stained: 1) with hematoxylin and eosin according to the standard procedure for routine histological examination; and 2) with picrofuxin for the calculation of the area of connective tissue, using a graphic data processing software.

[1] = Day 45 after Paclitaxel, Treamid 5 mg/kg
[2] = Day 65 after Paclitaxel, Treamid 5 mg/kg
[3] = Day 90 after Paclitaxel, Treamid 5 mg/kg

`O=C(CCCC(=O)NCCc1ncc[nH]1)NCCc1ncc[nH]1` [Treamid] was tested, and the “Number of motile sperm cells (%)” value (male rats; [1]) was 71.57 ± 3.19 %, the “The average number of Sertoli cells (abs.)” value (male rats; [1]) was 1.61 ± 0.03 abs and the “The average number of spermatogonia (abs.)” value (male rats; [1]) was 14.56 ± 0.19 abs. The “The degree of maturity of the spermatogenic layer (standard units)” value (“The degree” below) (male rats; [1]) was 5.66 ± 0.01 standard units, the “Total number of sperm cells (million)” value (male rats; [1]) was 146.00 ± 9.53 million and the “growth of percentage of motile sperm forms in comparison with the control” value (male rats; Day 65) was 32%. For the same compound, the “increase of productivity of spermatogenesis (TNS) in comparison with the control” value (male rats; Day 65) was 43%, the “Endocrine activity of testes” value (male rats; [2]) was 4.31 ± 0.24 and the “Number of Leydig cells” value (male rats; [2]) was 9.48 ± 0.21. The “Number of motile sperm cells (%)” value (male rats; [2]) was 79.81 ± 1.61 %, the “The average number of Sertoli cells (abs.)” value (male rats; [2]) was 2.30 ± 0.03 abs and the “The average number of spermatogonia (abs.)” value (male rats; [2]) was 13.07 ± 0.28 abs. The “The degree” value (male rats; [2]) was 5.54 ± 0.00 standard units, the “Total number of sperm cells (million)” value (male rats; [2]) was 145.20 ± 15.15 million and the “increase of productivity of spermatogenesis (TNS) in comparison with the control” value (male rats; Day 90) was 46%. The Endocrine activity (male rats; [3]) was 4.74 ± 4.04, the “Number of motile sperm cells (%)” value (male rats; [3]) was 67.80 ± 1.14 % and the “The average number of Leydig cells” value (male rats; [3]) was 9.93 ± 0.08. For the same compound, the “The average number of Sertoli cells (abs.)” value (male rats; [3]) was 2.10 ± 0.06 abs, the “The average number of spermatogonia (abs.)” value (male rats; [3]) was 14.43 ± 0.21 abs and the “The degree” value (male rats; [3]) was 5.57 ± 0.01 standard units. The “Total number of sperm cells (million)” value (male rats; [3]) was 186.20 ± 12.74 million, the “content of connective tissue in the liver compared to the pathological control” value (male CBA/CaLac mice) was “markedly reduced” and the “histological pattern of the liver” value (male CBA/CaLac mice) was “did not differ from that of the intact control”.
